Drawing on US4738970A, “Benzimidazolyl-thio-tetrahydroquinolines and anti-peptic ulcer compositions containing the same” (Otsuka Pharmaceutical Co., Ltd., priority 1984, dated 1988), this text covers ED50 and IC50 for five compounds.

Assay [1] deals with secretion of hydrochloric acid in the stomach. In words: Inhibitory Effect Test for the Secretion of Hydrochloric Acid in the Stomach. It is filed as in vivo, Wistar strain male rats. The note with it: Rattus norvegicus; Wistar male rats, pylorus ligated, histamine dihydrochloride 1 mg/kg/hour stimulated; injected into the duodenum; probit analysis; read-out: ED50 (inhibition of the secretion of hydrochloric acid). On the procedure:
Wistar strain male rats were used as test animals. The test animals were abstained from food for 24 hours, then the pyloric sphincter of the test animal was ligated under anesthetized condition with urethane (1.5 g/kg), and a perfusion cannula for the stomach was inserted into the stomach.
The stomach was perfused with physiological saline through a peroral catheter, and the quantity of gastric juice secreted was measured by determining the pH and by titrating the total acidity of the perfusate.
The secretion of gastric juice was accelerated by injecting histamine dihydrochloride as the secretion stimulant in the rate of 1 mg/kg/hour continuously through the femoral vein, then the effect of each of the compounds was tested. Each of the test compounds was dissolved in dimethylformamide, and the predetermined dosage (maximum: 30 mg/kg) of each of the test compounds was administered by injecting the test compound solution into the duodenum.
Inhibition rate (%) of the secretion of hydrochloric acid was calculated by taking the value of the hydrochloric acid secreted before the administration of each of the test compounds as the reference. ED50 value of each of the test compounds was calculated from the inhibitory rate (%) of each of the test compounds and treated mathematically by probit (probability unit) analysis.

A further assay concerns the target T1, H^+ -K^+ -ATPase (Sus scrofa, UniProt P19156).
T1 construct: which was prepared from the stomach of swine; from tissue; host or cells: stomach of swine
In words: Inhibitory Effect Test for the Activity of H^+ -K^+ -ATPase. It counts as biochemical. The conditions noted are these: H+-K+-ATPase from the stomach of swine; preincubation pH 6.1, room temperature 30 min; reaction pH 7.4, 37° C. 30 min; read-out: IC50 (50% inhibition dosage). On the procedure:
H^+ -K^+ -ATPase (hydrogen-potassium-activated adenosine triphosphatase) (protein content: 10 mcg) which was prepared from the stomach of swine was added to PIPES-tris[buffer PIPES-tris(hydroxymethyl)-2-amino-1,3-propanediol buffer (pH=6.1) containing 2 mM of piperazine-N,N'-bis(2-ethanesulfonic acid)], then the resulting mixture was let allowed to stand at room temperature.
Each of the test compounds was dissolved in dimethylformamide, and the dimethylformamide solution was added to the above-mentioned H^+ -K^+ -ATPase buffer solution so as to adjust the final concentration of the test compound to 1.0%. Each of thus prepared mixture was reacted at room temperature for 30 minutes.
Next, the above-mentioned reaction mixture was divided into two portions, and to the one portion thereof was added 1 ml of 75 mM PIPES-tris buffer solution (pH=7.4) (containing 4 mM of MgCl2, 4 mM of Na2 ATP and 20 mM of KCl), on the other hand, to another portion of the reaction mixture was added 1 ml of 75 mM PIPES-tris buffer solution (pH=7.4) (containing 4 mM of MgCl2 and 4 mM of Na2 ATP), respectively. Each of these two series of sample solutions was separately reacted at 37° C. for 30 minutes. Then to each of these reaction mixtures was added 0.3 ml of 40% trichloroacetic acid to terminate the reaction, and was subjected to centrifugal separation at 3,000 rpm for 10 minutes to obtain the supernatent. Next, the inorganic phosphoric acid formed in the reaction mixture was determined by a method according to the article by C. H. Fiske and Y. Subbarow: J. Biol. Chem., Vol. 66, pages 375-400, (1925). The difference of the value obtained by substracting the quantity of inorganic phosphoric acid determined by using PIPES-tris buffer solution without containing 20 mM of KCl from the quantity of inorganic phosphoric acid determined by using PIPES-tris buffer solution containing 20 mM of KCl, was converted into as activity value of enzyme with respect to the unit protein and unit time.
Inhibitory rate (%) of each of the test compounds was obtained from the activity value of the enzyme at the respective dosages in the test groups and those of obtained from the control group, then IC50 (50% inhibition dosage of each of the test compounds) was calculated from the inhibitory rate (%).

T1 sequence (P19156 2-1034 limits assumed): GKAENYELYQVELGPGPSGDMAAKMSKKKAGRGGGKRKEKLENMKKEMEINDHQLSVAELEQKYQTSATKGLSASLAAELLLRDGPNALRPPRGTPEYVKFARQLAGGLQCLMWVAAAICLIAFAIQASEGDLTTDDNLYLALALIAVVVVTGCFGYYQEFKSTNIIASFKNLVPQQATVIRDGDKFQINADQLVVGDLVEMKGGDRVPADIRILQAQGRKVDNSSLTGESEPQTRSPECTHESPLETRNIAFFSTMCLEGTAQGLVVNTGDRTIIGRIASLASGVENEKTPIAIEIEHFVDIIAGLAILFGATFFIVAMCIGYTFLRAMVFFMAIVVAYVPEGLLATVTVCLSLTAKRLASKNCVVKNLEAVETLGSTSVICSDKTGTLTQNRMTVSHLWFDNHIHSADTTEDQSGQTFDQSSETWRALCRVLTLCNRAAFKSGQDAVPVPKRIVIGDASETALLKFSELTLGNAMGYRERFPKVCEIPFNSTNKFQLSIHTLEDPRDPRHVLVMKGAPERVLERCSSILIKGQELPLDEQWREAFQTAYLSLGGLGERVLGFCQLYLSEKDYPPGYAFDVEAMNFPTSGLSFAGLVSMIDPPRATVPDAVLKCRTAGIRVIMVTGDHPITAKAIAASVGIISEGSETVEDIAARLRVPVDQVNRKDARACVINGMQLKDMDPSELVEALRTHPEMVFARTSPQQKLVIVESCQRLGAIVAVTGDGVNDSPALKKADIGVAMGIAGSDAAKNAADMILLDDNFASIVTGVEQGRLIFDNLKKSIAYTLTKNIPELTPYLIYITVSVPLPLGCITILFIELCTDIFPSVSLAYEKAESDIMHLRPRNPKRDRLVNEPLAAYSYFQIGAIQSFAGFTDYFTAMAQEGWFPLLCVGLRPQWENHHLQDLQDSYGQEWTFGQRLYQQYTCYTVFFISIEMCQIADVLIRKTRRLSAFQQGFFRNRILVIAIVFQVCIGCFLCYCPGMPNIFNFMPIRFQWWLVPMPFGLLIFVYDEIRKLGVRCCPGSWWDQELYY
T1 sequence (P18434 whole entry partner): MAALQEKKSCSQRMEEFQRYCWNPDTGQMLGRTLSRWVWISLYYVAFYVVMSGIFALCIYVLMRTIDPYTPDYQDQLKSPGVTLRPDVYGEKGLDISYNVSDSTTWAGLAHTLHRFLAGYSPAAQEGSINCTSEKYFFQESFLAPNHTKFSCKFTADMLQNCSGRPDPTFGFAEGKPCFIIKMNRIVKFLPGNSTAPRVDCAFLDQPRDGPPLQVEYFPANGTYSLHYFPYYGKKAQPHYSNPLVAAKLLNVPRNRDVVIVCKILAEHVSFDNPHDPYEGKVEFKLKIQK

For the compound `[O-][S+](c1nc2ccc(F)cc2[nH]1)C1CCCc2cccnc21` (stereo not shown) [Test compound 32, 8-(5-Fluoro-2-benzimidazolyl)sulfinyl-5,6,7,8-tetrahydroquinoline], the median effective dose (ED50) (commonly the midpoint of the dose-response relation) in assay [1] came to 5.2 mg/kg. For the same compound, the 50% inhibitory concentration (IC50) (commonly the concentration at which inhibition is half-maximal) at H^+ -K^+ -ATPase worked out at 1700 nM.
For `Cc1ccc2nc([S+]([O-])C3CCCc4cccnc43)[nH]c2c1` (stereo not shown) [Test compound 17, 8-(5-Methyl-2-benzimidazolyl)sulfinyl-5,6,7,8-tetrahydroquinoline] the same measures were 17.2 mg/kg and 1900 nM.
Consider `[O-][S+](c1nc2ccccc2[nH]1)C1CCCc2cccnc21` (stereo not shown) [Test compound 12, 8-(2-Benzimidazolyl)sulfinyl-5,6,7,8-tetrahydroquinoline], for which, in assay [1], the ED50 turned out to be 8.5 mg/kg. Besides, on H^+ -K^+ -ATPase, the IC50 was 1200 nM.
Taken in the same sequence, the figures for `[O-][S+](c1nc2ccc(Cl)cc2[nH]1)C1CCCc2cccnc21` (stereo not shown) [Test compound 20, 8-(5-Chloro-2-benzimidazolyl)sulfinyl-5,6,7,8-tetrahydroquinoline] were 4.4 mg/kg and 1000 nM.
`COc1ccc2nc([S+]([O-])C3CCCc4cc(C)cnc43)[nH]c2c1` (stereo not shown) [Test compound 26, 3-Methyl-8-(5-methoxy-2-benzimidazolyl)-sulfinyl-5,6,7,8-tetrahydroquinoline]: the ED50 in assay [1] came to 15.7 mg/kg. The half-inhibitory concentration (IC50) at H^+ -K^+ -ATPase amounted to 3700 nM.
